Results on 1 molecule are retold here after EP0492113A2, “Herbicide resistant AHAS deletion mutants” (priority 1990, dated 1992).

The target of test [1] is T1, Trp574-->Leu substitution mutant allele of the Arabidopsis AHAS (Arabidopsis thaliana, UniProt P17597, W574L).
T1 construct: expressed in transfected cells; host or cells: leaf tissue of transgenic tobacco (Wisconsin 38 background), Agrobacterium LBA4404 / pBIN19 with the 5.5 kb XbaI genomic fragment
As to the kind of experiment: AHAS enzyme assay (leaf tissue) of tobacco transformants 33-1 and 46-2. The format is biochemical. To be noted: leaf extracts of kanamycin resistant transformants 33-1 and 46-2. On the procedure:
(§1) AHAS enzyme assay (leaf tissue) - Shortly after transfer to the greenhouse, extracts each of the kanamycin resistant transformants are prepared and assayed for insensitivity to the imidazolinone Pursuit® herbicide. Acetohydroxyacid synthase is extracted and assayed as described in the previous section. […] This Trp574 deletion transformant is selfed and backcrossed to Wisconsin 38.
(§2) The extraction and assay for Arabidopsis AHAS in bacterial cells is essentially as described by Singh, et. al. (J. Chromatography 444: 251-261, 1988). The bacterial pellet is powered in liquid nitrogen and homogenized in 100mM potassium phosphate buffer (pH 7.5) containing 10mM pyruvate, 5mM magnesium chloride, 5mM Na₂-EDTA, 100um flavin adenine dinucleotide (FAD), 1mM valine, 1mM leucine, 10%(v/v) glycerol and 10mM cysteine. The homogenate is filtered through a nylon cloth (53uM mesh) and centrifuged at 25,000 x g for 20 minutes. The supernatant fraction is brought to 50% saturation with respect to ammonium sulfate and allowed to stand for 20-30 minutes on ice. […]
(§3) AHAS activity in the presence or absence of herbicide is measured by estimation of the product, acetolactate, after conversion by acid decarboxylation to acetoin. […] The acetoin formed is determined by incubating with creatine (0.17%) and 1-naphthol (1.7%) by the method of Westerfeld (J. Biol. Chem. 161: 495-502, 1945). […]

The next test deals with W38 (wild-type). As to the kind of experiment: Tobacco seed assay on herbicide medium, W38. Type of test: in vivo. The note with it: after three weeks. On the procedure: (§4) Seeds resulting from transgenic plant 10-1 are also assayed for resistance to the imidazolinone Pursuit®. Seeds are plated onto medium containing Pursuit® at 0, 1.25, 2.5, 3.75, and 5.0 µM. Twenty seeds are plated per petri dish, with two dishes per treatment. Herbicide tolerance of seedlings is evaluated after three weeks. […]

Test [2] concerns the target T2, AHAS produced by the Ser653 deletion (pAC230) (Arabidopsis thaliana, UniProt P17597, DEL653-653).
T2 construct: made in house; host or cells: E. coli MF2000
The format is biochemical. The note with it: Figures 6 and 7.

In test [3] the target is T3, mutant Arabidopsis AHAS allele having the Trp574 deletion (Arabidopsis thaliana, UniProt P17597, DEL574-574).
T3 construct: expressed in transfected cells; host or cells: leaf tissue of transgenic tobacco plant 10-1, Agrobacterium LBA4404 / pBIN19 with the 5.5 kb XbaI genomic fragment
T3 sequence (P17597 other isoform, or with tags, fused parts or gaps DEL574-574): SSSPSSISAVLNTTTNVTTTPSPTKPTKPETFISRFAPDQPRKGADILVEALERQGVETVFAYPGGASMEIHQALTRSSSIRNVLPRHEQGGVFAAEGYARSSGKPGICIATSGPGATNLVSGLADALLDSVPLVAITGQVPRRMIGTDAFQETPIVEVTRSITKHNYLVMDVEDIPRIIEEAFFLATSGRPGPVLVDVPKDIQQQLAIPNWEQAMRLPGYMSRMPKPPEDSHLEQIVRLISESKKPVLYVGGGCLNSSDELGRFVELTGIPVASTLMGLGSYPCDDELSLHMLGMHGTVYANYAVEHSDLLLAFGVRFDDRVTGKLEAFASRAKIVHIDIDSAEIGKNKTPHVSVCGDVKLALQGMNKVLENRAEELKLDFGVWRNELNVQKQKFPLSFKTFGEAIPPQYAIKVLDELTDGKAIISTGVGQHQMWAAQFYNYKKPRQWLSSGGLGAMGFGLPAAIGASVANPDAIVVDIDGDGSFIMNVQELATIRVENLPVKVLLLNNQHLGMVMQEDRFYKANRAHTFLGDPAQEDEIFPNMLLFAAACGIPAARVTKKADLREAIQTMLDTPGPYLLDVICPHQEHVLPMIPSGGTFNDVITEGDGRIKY
As to the kind of experiment: AHAS enzyme assay (leaf tissue) of tobacco deletion transformant 10-1. Type of test: biochemical. The note with it: leaf extract of kanamycin resistant deletion transformant 10-1. On the procedure: as §1, §2, §3

The next test relates to 10-1 Selfed. As to the kind of experiment: Tobacco seed assay on herbicide medium, 10-1 selfed. The note with it: 5 µM in medium; twenty seeds per dish; after three weeks. The format is in vivo. As for the experimental part: as §4
Test [4] deals with T4, Arabidopsis AHAS Trp574 deletion (pAC225) (Arabidopsis thaliana, UniProt P17597, DEL574-574).
T4 construct: made in house; host or cells: E. coli MF2000, vector pKK233-2
T4 sequence (P17597 other isoform, or with tags, fused parts or gaps DEL574-574): as above
Type of test: biochemical. The note with it: increasing concentrations of herbicide, Figures 4 and 5. On the procedure:
(§5) AHAS enzyme assay (expression in E. coli) - The site directed mutants, pAC224 and pAC225, are utilized as templates for the generation of an E. coli based expression system. The insensitivity to herbicide is tested when the higher plant gene of interest is expressed in a bacterial strain devoid of any endogenous AHAS activity. To this end, the Nco1/Pst1 fragment of wild type Arabidopsis AHAS (pAC301), the Trp574-Leu substitution (pAC224) and the Trp574 deletion (pAC225) are subcloned into the Nco1/Pst1 site of the E. coli expression vector, pKK233-2 (purchased from Pharmacia). This expression plasmid contains an IPTG inducible promoter as well as a transcription termination sequence. Both regions surround an Nco1, HindIII and Pstl linker sequence that allows proper orientation of the gene of interest in relation to the bacterial promoter. Subcloning and ligation of the respective Ncol/Pstl fragments into Ncol/Pstl digested pKK233-2 DNA (ampicillin resistance) is as previously described. The ligation reaction is transformed into the E. coli strain, MF2000 [ilvB800:mu-1, Bg132, ilvI15, thi-1, argE3, RPSL31, (ara-leu, iIvHI) 863, mtl-1, xyl-5 galK2, lacYI, recAl]. This bacterial strain is devoid of endogenous AHAS activity. […]

The target of test [5] is T5, Arabidopsis AHAS Trp574-Leu substitution (pAC224) (Arabidopsis thaliana, UniProt P17597, W574L).
T5 construct: made in house; host or cells: E. coli MF2000, vector pKK233-2
T5 sequence (P17597 56-670 W574L): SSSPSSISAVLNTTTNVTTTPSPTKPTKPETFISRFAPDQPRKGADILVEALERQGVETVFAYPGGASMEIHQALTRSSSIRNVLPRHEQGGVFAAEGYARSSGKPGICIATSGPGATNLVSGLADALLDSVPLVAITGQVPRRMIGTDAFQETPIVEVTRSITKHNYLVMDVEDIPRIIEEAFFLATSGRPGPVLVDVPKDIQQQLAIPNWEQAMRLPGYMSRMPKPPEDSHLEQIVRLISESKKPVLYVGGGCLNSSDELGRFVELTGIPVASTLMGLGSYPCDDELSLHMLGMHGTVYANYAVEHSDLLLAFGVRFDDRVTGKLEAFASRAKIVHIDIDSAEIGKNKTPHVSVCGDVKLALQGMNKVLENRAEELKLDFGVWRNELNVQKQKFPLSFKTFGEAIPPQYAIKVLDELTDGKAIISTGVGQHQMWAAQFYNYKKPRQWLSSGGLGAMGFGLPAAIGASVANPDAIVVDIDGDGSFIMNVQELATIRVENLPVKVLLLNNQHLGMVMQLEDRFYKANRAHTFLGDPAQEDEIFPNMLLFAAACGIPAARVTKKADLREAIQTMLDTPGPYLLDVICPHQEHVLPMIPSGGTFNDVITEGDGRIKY
Type of test: biochemical. To be noted: increasing concentrations of herbicide, Figures 4 and 5. As for the experimental part:
as §5

The mark [6] stands for this setting: 5 µM in medium, twenty seeds per dish.

“And” between values parts separate entries of the source, which are not always exact repeats. Equal values may be shown once.

T2 sequence (P17597 other isoform, or with tags, fused parts or gaps DEL653-653): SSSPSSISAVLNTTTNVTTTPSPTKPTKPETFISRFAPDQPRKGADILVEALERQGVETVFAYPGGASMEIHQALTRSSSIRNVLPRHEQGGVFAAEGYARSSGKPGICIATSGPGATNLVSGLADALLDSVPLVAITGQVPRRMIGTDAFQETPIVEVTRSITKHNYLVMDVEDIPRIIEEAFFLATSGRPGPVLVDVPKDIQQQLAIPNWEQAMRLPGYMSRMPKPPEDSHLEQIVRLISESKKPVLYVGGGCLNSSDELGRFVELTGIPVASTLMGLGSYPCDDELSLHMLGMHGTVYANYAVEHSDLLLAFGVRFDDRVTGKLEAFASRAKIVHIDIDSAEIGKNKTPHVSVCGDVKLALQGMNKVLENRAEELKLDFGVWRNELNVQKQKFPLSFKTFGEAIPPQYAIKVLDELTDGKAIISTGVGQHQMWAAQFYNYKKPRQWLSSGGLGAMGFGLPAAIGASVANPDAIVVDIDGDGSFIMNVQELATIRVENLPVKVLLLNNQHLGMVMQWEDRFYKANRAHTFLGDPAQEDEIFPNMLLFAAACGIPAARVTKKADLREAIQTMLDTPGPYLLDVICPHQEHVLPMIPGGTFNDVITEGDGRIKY
T1 sequence (P17597 56-670 W574L): as the sequence (P17597 56-670 W574L) above

As for `CCc1cnc(C2=NC(C)(C(C)C)C(=O)N2)c(C(=O)O)c1` (centres unmarked) [Pursuit®], the “AHAS activity in the presence of herbicide” value in test [1] is listed as “exhibit AHAS activity”. The “D (Damaged), number of seedlings per dish” value was 0 in the test on W38 (wild-type) (setting [6]); 6 and 11 in the test with 10-1 Selfed. Also, the “R (Resistant), number of seedlings per dish” value with W38 (wild-type) (setting [6]) was found to be 0; in the test with 10-1 Selfed, 6. In addition, in the test with W38 (wild-type) (setting [6]), the “S (Susceptible), number of seedlings per dish” value is on record as 20. The “herbicide tolerance of seedlings” value with W38 (wild-type) (control plants, lowest concentration, 1.25 µM in medium) is listed as “exhibited herbicide sensitivity”. Also, the “sensitivity of AHAS enzyme to herbicide” value in test [2] is “highly resistant to inhibition”; in test [4], “insensitive”; in test [5], “insensitive”. In test [3], the “AHAS activity on addition of herbicide” value is “exhibits insensitivity”.
